Tests used:
Assay in all cases: relative viability (nuclei count vs DMSO), 5 days (fraction); higher = more cells survive
[1] = compound: C1=CC=C(C(=C1)C2=CC=C(C=C2)C3=CSC4=C3C(=C(C(=O)N4)C#N)O)O + CC(C)C[C@H](NC(=O)[C@H](Cc1ccccc1)NC(=O)c1cnccn1)B(O)O [Bortezomib] (partner 0.002 µM)
How it was run: (§1)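 Lung cancer cell lines in 1536-well plates got either a single drug or a fixed anchor-drug dose together with five library-drug doses (not always all listed) in √10 steps, by pin tool, on the day after seeding. Nuclei were counted after 5 days, and relative viability is the treated-to-vehicle ratio of nuclei counts. Values are medians of duplicate plates.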

[2] = compound: C1=CC=C(C(=C1)C2=CC=C(C=C2)C3=CSC4=C3C(=C(C(=O)N4)C#N)O)O + C[C@]1(O)C[C@@H](c2nc(-c3ccc4ccc(-c5ccccc5)nc4c3)c3c(N)nccn32)C1 [Linsitinib] (partner 1 µM)
How it was run: as §1

TGX 221 + Palbociclib = compound: CC1=CN2C(=O)C=C(N=C2C(=C1)C(C)NC3=CC=CC=C3)N4CCOCC4 [TGX 221] + CC(=O)c1c(C)c2cnc(Nc3ccc(N4CCNCC4)cn3)nc2n(C2CCCC2)c1=O [Palbociclib] (partner 0.5 µM)
How it was run: as §1

[3] = compound: O=C(CCCCCCNC(=O)c1cnc(N(c2ccccc2)c2ccccc2)nc1)NO [Ricolinostat] + Nc1nc2[nH]cc(CCc3ccc(C(=O)N[C@@H](CCC(=O)O)C(=O)O)cc3)c2c(=O)[nH]1 [Pemetrexed] (partner 0.2 µM)
How it was run: as §1

Cell Line | relative viability ([1]; first compound 0.08 µM) | relative viability ([1]; first compound 0.253 µM) | relative viability ([1]; first compound 0.8 µM) | relative viability ([1]; first compound 2.53 µM) | relative viability ([1]; first compound 8 µM) | relative viability ([2]; first compound 0.08 µM) | relative viability ([2]; first compound 0.253 µM) | relative viability ([2]; first compound 0.8 µM) | relative viability ([2]; first compound 2.53 µM) | relative viability ([2]; first compound 8 µM) | relative viability (TGX 221 + Palbociclib; first compound 0.08 µM) | relative viability (TGX 221 + Palbociclib; first compound 0.253 µM) | relative viability (TGX 221 + Palbociclib; first compound 0.8 µM) | relative viability (TGX 221 + Palbociclib; first compound 2.53 µM) | relative viability (TGX 221 + Palbociclib; first compound 8 µM) | relative viability ([3]; first compound 0.08 µM) | relative viability ([3]; first compound 0.253 µM) | relative viability ([3]; first compound 0.8 µM) | relative viability ([3]; first compound 2.53 µM)
NCI-H2228 | 0.973 | 0.922 | 1.07 | 0.959 | 0.73 | 0.623 | 0.627 | 0.686 | 0.648 | 0.666 | 0.692 | 0.689 | 0.989 | 0.675 | 0.719 | 0.311 | 0.31 | 0.285 | 0.345
NCI-H661 | 1.05 | 0.71 | 0.697 | 0.678 | 0.718 | 0.589 | 0.607 | 0.561 | 0.487 | 0.471 | 0.427 | 0.43 | 0.396 | 0.406 | 0.376 | 0.832 | 0.879 | 0.9 | 0.776
